These results are taken from a melting point compilation (Tetko et al.; mined from patent text by program, amines drawn as free bases though some values may be those of a salt).

`Cn1cc(C(=O)NCc2ccc(Cl)cc2)c(=O)c2cc(COCC[C@@H](O)c3ccccc3)sc21` returned a melting point of 154 to 156 °C. For `Cn1cnc(C(=O)N2CCC(NC(=O)Nc3ccc(C(F)(F)F)cc3)CC2)c1` the value was 222 to 226 °C.

In turn, `CCOC(=O)C1=C(C)NC(CO)=C(C(=O)OCC)C1c1ccccc1[N+](=O)[O-]` (stereo not drawn) yielded a melting point of 112 to 113 °C.

Consider `Nc1ncc(Cl)c(Cl)c1Cl`, for which the melting point was in the range of 160 to 162 °C.

In turn, `Nc1ccc(-c2cccs2)c(C(=O)Nc2ccc3c(c2)CCC3)c1` came in with a melting point of 62 to 67 °C.

`CC(=O)Nc1c(C(=O)C2CCCC(C)C2)[nH]c2cc(Cl)ccc12` (stereo not drawn) came in with a melting point of 202 to 203 °C.

Compound `Cn1c2ccccc2c(=O)c2cscc21` gave a melting point of 188 to 190 °C. For `COC(=O)n1c(=O)n(C(C)C)c2nc(=O)[nH]cc21` the value was 303 to 306 °C; for `CN1CCN(c2cc3c(cc2C(F)(F)F)[nH]c(=O)c2n[nH]c(=O)n23)CC1`, more than 300 °C. As for `CCOC(=O)C=C(c1ccc(Br)s1)c1ccc(Br)s1`, the melting point lay in the range of 69 to 70 °C. For `CSC1(C)C(=O)Nc2c(C(=O)c3ccccc3)cccc21` (stereo not drawn) the value was 135 to 137 °C; for `O=C(Cn1ccnc1)c1cccs1`, 87 to 89 °C; for `CCOP(=O)(O)C(=Nc1ccc(-c2c[nH]cn2)cc1)NC(C)C`, 235 °C. Next, `OCc1cc(CO)c(O)c(-c2ccccc2)c1`: 105 to 110 °C. For `Fc1ccc2c(N3CCN(Cc4ccccc4)CC3)n[nH]c2c1` the value was 162 °C. Compound `N#Cc1ccc(NC(=O)c2ccc(S(=O)(=O)N3CCc4cc(Cl)ccc43)cc2)c(-c2n[nH]c(=O)o2)c1` came in with a melting point of 262 to 264 °C.

Regarding `O=C1NCN2c3ccc([N+](=O)[O-])cc3Sc3cccc1c32`, the melting point lay in the range of 205 to 208 °C.

Compound `N#Cc1ccsc1-c1ccc(CBr)cc1` registered a melting point of 80 °C.

`CN(C(CCn1c(=O)cc(Cl)[nH]c1=O)C(=O)NO)S(=O)(=O)c1ccc(Oc2ccc(Cl)cc2)cc1` (stereo not drawn): the melting point fell in the range of 171 to 173 °C. As for `Cc1ccc(C)c(S(=O)(=O)c2ccc(F)c3ccccc23)c1`, the melting point lay in the range of 142 to 143 °C. Next, `Cc1ccc2cc(-c3ccc4c(c3)C(C)(C)CCC4(C)C)ccc2c1`: 173 to 175 °C; `O=C(CN1C(=O)c2ccccc2C1=O)NCc1nncn1-c1ccc(Cl)cc1C(=O)c1ccccc1`: 214 to 215 °C; `CCO/C(=N/O)C1Cc2cc(C(=O)c3ccccc3F)c(O)c(Cl)c2O1` (stereo not drawn): 171 to 172 °C. Compound `Cc1ncc(-c2ccc(Cl)cc2)cc1C(=O)OC(C)(C)C` came in with a melting point of 70 to 72 °C. Compound `CC(=O)c1cc(Cl)c(O)c2ncccc12` had a melting point of 163 to 166 °C. `CNC(=O)C=Cc1cn(C)nc1[N+](=O)[O-]` showed a melting point of 200 to 203 °C. For `Cc1ccnc2c(Oc3ccccc3N)cccc12`, the melting point was in the range of 160 to 161 °C. For `CC(=C1SC(=S)NC1=O)c1ccccc1C(=O)O` the value was 193 to 195 °C; for `Nc1nc2ccc(NC(=O)C(=O)N3CCC(Cc4ccccc4)CC3)cc2s1`, 203 °C; for `CC(=O)OCC1CCc2cc3ccccc3n2CC1` (stereo not drawn), 77 to 79 °C. For `COc1ccc(-c2nc3cc(Cl)c(Cl)cc3[nH]2)cc1N`, the melting point is more than 300 °C.

`O=C(O)C(=O)N1CN(C(=O)c2c(F)cccc2F)C(=O)N(c2ccc(Oc3ccc(C(F)(F)F)cc3Cl)cc2F)C1`: the melting point lay within 67 to 72 °C.

In the case of `c1ccc(N2CCN(CCCc3[nH]nc4c3CCCC4)CC2)cc1`, the melting point fell in the range of 92 to 94 °C. As to `CCN(C)C(N)=C(C#N)C(N)=S`, the melting point lay within 121 to 124 °C.

As to `CCc1cc2c(NC(C)c3ccccc3)ncnc2s1` (stereo not drawn), the melting point is 141 °C. Next, `Cc1c(-c2ccccc2)[nH]c(=O)n1C1CCN(Cc2cccc3c2OCO3)CC1`: 244 to 245 °C; `CC(=O)N(Cc1cccnc1)c1ccc(Cl)cc1`: 64 to 65 °C. Next, `Cc1cc(C(F)(C(F)(F)F)C(F)(F)F)ccc1NC1OC(=O)c2cccc(Cl)c21` (stereo not drawn): 229 to 231 °C. The compound `O=C1c2ccccc2C(=O)N1CC(=O)N1c2ccccc2N(CCCc2ccccc2)C(=O)[C@H]2CCC[C@H]21` (relative stereo) showed a melting point of 192 to 193 °C. For `NC(=O)c1nnn(Cc2ccc(C(=O)c3ccc(Cl)cc3)c(Cl)c2)c1N` the value was 203 to 205 °C; for `CCCC(=O)c1cc(-c2ccccc2)no1`, 89 to 90 °C; for `Cn1cc(C(=O)NCc2ccc(Cl)cc2)c(=O)c2cc(CN3CCCOCC3)ccc21`, 178 to 179 °C. Next, `COC(=O)CC1=c2ccccc2=Cc2ccccc2O1`: 59 to 63 °C; `O=[N+]([O-])c1c(N2CCc3ccccc3CC2)nc2c(c1O)CCCCC2`: more than 200 °C; `O=[N+]([O-])c1oc2cc3c(cc2c1-c1ccccc1)OCO3`: 180 to 183 °C.

`Cc1ccc(C2(O)c3ccccc3C(=O)c3ccccc32)cc1`: the melting point lay in the range of 203 to 209 °C.

`Cc1cc(Cl)c(Cl)cc1NC(=O)C1(C(=O)O)CC1` yielded a melting point of 248 to 251 °C.

On to `CN1N=C(c2ccc(F)cc2)c2ccc(Cl)cc2CS1(=O)=O`, for which the melting point lay in the range of 250 to 251 °C. Next, `COCCOc1ccc(C(=O)C2=C(O)C(=O)N(c3ccc(C)nn3)C2c2ccc(OC(F)(F)F)cc2)cc1` (stereo not drawn): 216 to 219 °C; `CCCCc1ncc(/C=C(\Cc2cccs2)C(N)=O)n1Cc1ccccc1Cl`: 182 to 184 °C.

As for `CC#CCOc1ccc(S(=O)(=O)C2(C(=O)O)CCCN(Cc3ccc(Cl)cc3)C2)cc1` (stereo not drawn), the melting point is 115 °C. For the compound `COC(=O)C1=C(C)NC(C)=C(C(=O)OCC=Cc2ccccc2)C1c1cccc([N+](=O)[O-])c1` (stereo not drawn), the melting point lay in the range of 143 to 144 °C. Next, `CC(C)(C)NCC(=O)c1cccc2cc(O)c(O)cc12`: 140 to 144 °C. For `CNC(=O)C1(Nc2nc(Nc3cc4c(cc3OC)CCN(CC(=O)N(C)C)CC4)ncc2Cl)CC1` the value was 118 to 125 °C. Regarding `O=[N+]([O-])C=C(NCCSCc1nccs1)NCCSCc1nccs1`, the melting point lay within 50 to 51 °C.

`CCCCSC(=NC(C)=O)Nc1c(Cl)cccc1Cl` displayed a melting point of 84 to 89 °C.

For `Cc1oc(-c2ccccc2)nc1COc1ccc(OCc2oc(-c3ccccc3)nc2CO)cc1`, the melting point was in the range of 143 to 144 °C. Next, `Cc1ccc(S(=O)(=O)Nc2coc3ccccc3c2=S)cc1`: 212 °C. `CC(C)c1ccc(Nc2ccccc2[N+](=O)[O-])c(C#N)c1`: the melting point is 91 to 96 °C. For `O=c1oc(-c2ccccc2)cc(O)c1C(SC1CCCC1)C1CCCC1` (stereo not drawn) the value was 139 to 142 °C.

The compound `Cc1cc(F)ccc1NC(=O)CCC#Cc1ccccn1` yielded a melting point of 110 to 114 °C. For the compound `Cc1oc(-c2ccccc2)nc1COc1ccc(COc2ccc3ccccc3c2C=O)cc1`, the melting point lay in the range of 141 to 142 °C. Compound `CC1(O[Si](C)(C)C(C)(C)C)CN(c2ccc([N+](=O)[O-])cc2F)C1` displayed a melting point of 98 to 99.5 °C. As for `CN(C)CC(O)Cn1c2ccccc2c2c3c(c4c5ccccc5n(C)c4c21)C(=O)N(C)C3=O` (stereo not drawn), the melting point lay in the range of 198 to 203 °C. For `CCc1nc(-c2cccc(C)c2)c(-c2ccnc(N(C)C(=O)Cc3ccccc3)c2)s1` the value was 75 to 76 °C; for `COc1ccnc(CCc2nc3cc(-c4ccc(S(=O)(=O)N5CCNC(=O)CC5)cc4)cnc3[nH]2)c1`, 230 to 232 °C; for `COc1ccc(-c2csc(NN=Cc3cn(Cc4ccc(Cl)cc4Cl)c4ccccc34)n2)cc1OC`, 205 °C. Next, `C=CCN1C(=O)c2cccc3c(OCCO)ccc(c23)C1=O`: 144 to 145 °C; `Cc1ccccc1C(CCC(=O)O)Oc1cc(OCc2ccsc2)ccc1C(=O)C=Cc1ccccn1` (racemic): 65 to 70 °C. Compound `CN(Cc1ccc(C(=O)O)cc1)c1ccc(Cl)cc1` gave a melting point of 188 to 191 °C. For `CC(C)N1C(=O)CC(C(=O)O)C1c1ccccc1` (stereo not drawn) the value was 126 to 134 °C; for `Cn1ncc(=O)[nH]c1=O`, 118 °C; for `NC(=O)CNC(=O)c1cccc(-c2ncnc3cc(Cc4cccc(C(F)(F)F)c4)sc23)c1`, 205 to 206 °C. For `CC1SC(=O)NN=C1c1ccc2c(c1)C(=NNC1CCCCC1)C(=O)N2` (stereo not drawn) the value was 217 °C; for `COC1CN2[C@H]3CC[C@@H]2[C@@H]1[C@@H](c1ccc(Cl)c(Cl)c1)C3` (stereo partly drawn), 139 to 141 °C; for `CCOC(=O)c1nc(-c2ccc(F)cc2)c(-c2ccc(S(C)(=O)=O)cc2)s1`, 173 to 174 °C. In turn, `CC(C)c1noc2c1C(=O)N(C(C)(C)C)C2=O` came in with a melting point of 60 to 62 °C. Next, `NS(=O)(=O)c1cnc(C2CC2=O)s1` (stereo not drawn): 148 to 149 °C; `CS(=O)(=O)c1nccc(-c2ccc(Oc3ccc(F)cc3)cc2)n1`: 146 to 147 °C; `c1ccc(C2SC3(CCNCC3)c3ccccc32)cc1` (stereo not drawn): 142 to 144 °C. Next, `O=C1CC(c2cccc3c2OCO3)=Nc2ccc(N3CCOCC3)cc21`: 350 to 352 °C. Next, `Cc1c(CN(C)C)cc(C(C)(C)CC(C)(C)C)c(O)c1C`: 130 to 132 °C. With `CCN(CC)CCOc1ccc(Nc2ncc3c(n2)N(C)C(=O)N(c2ccccc2C)C3)cc1`, the melting point came to 132 °C.

For `Cn1cc(Oc2ccccc2)c(=O)c(-c2ccccc2)c1`, the melting point lay within 176 to 177 °C. `Nc1cc(C(=O)O)cc(OCc2ccccn2)c1C(=O)c1ccccc1` showed a melting point of 212 to 213 °C. For `NCCCCC(OP(=O)(O)CCCCc1ccccc1)C(=O)N1CCCC1C(=O)O` (stereo not drawn) the value was 160 to 175 °C; for `CS(=O)(=O)c1ccc(C(=O)NCc2ccc3c(c2)C(=O)N(C2CCC(=O)NC2=O)C3=O)nc1` (stereo not drawn), 276 to 278 °C. In turn, `O=C(O)CCCCc1cc(O)c(O)c(Cl)c1` gave a melting point of 99 to 101 °C.

The term melting point denotes the temperature, or range, at which the solid turns liquid.
